Among the data in publication PMC9499365, “Stereoselective Synthesis and Application of Gibberellic Acid-Derived Aminodiols” (International Journal of Molecular Sciences, 2022) are inhibition and melting point values, retold here.

Series [1] relates to A2780 ovarian cancer cells. Nature of the series: MTT antiproliferative assay, A2780. In kind it is cell-based, human. To be noted: Homo sapiens, 72 h, read-out: Growth inhibition (%) ± SEM; for inhibition at 10 µM: A2780, 10 μM; for inhibition at 30 µM: A2780, 30 μM. How it is done:
(§1) The in vitro antiproliferative activities of the synthesized aminodiols 4–38 against a panel of different human cancer cell lines of gynecological origin, including cervical (SiHA and HeLa), breast (MCF7 and MDA-MB-231), and ovary (A2780) cancers were assayed by the MTT method. […] Cisplatin, a clinically applied anticancer agent, was used as a reference compound and the results are summarized in Figure 3 and Table S1 in Supporting Information. […] On the other hand, none of the prepared azole derivatives exerted relevant activity.
(§2) The growth-inhibitory effects of the gibberellic acid-based aminodiol derivatives were determined by a standard MTT (3-(4,5-dimethylthiazol-2-yl)-2,5-diphenyltetrazolium bromide) assay on a panel containing five cell lines, including Hela and Siha (cervical cancers); MDA-MB-231 and MCF-7 (breast cancers); and A2780 ovarian cancer cells. The most promising agents were additionally tested against NIH/3T3 mouse embryo fibroblast cells. All cell lines were purchased from the European Collection of Cell Cultures (Salisbury, UK) except SiHa, which was obtained from the American Tissue Culture Collection (Manassas, VA, USA). The cells were maintained in minimal essential medium supplemented with 10% fetal bovine serum, 1% non-essential amino acids, and 1% penicillin-streptomycin at 37 °C in a humidified atmosphere containing 5% CO2. All media and supplements were obtained from Lonza Group Ltd., (Basel, Switzerland). Cancer cells were seeded into 96-well plates (5000 cells/well), after an overnight incubation the test compound was added in 2 different concentrations (10 µM and 30 µM) and incubated for another 72 h under cell-culturing conditions. Then, 20 μL of 5 mg/mL MTT solution was added to each well and incubated for a further 4 h. The medium was removed, and the precipitated formazan crystals were dissolved in DMSO during 60 min of shaking at 37 °C. As the final step, the absorbance was measured at 545 nm by using a microplate reader (SPECTROStar Nano, BMG Labtech, Offenburg, Germany). Untreated cells were included as controls. […] These agents were additionally tested against NIH/3T3 fibroblasts to obtain results about their cancer selectivity. Two independent experiments were performed with five wells for each condition. Cisplatin (Ebewe GmbH, Unterach, Austria), a clinically used anticancer agent, was used as a positive control. Calculations were performed utilizing the GraphPad Prism 5.01 software (GraphPad Software Inc., San Diego, CA, USA).
For orientation: Tetrazolium dyes change colour on reduction, which living cells bring about.

Series [2] deals with SiHa cells (cervical cancer). The series is described as follows: MTT antiproliferative assay, SiHa. The conditions noted are these: Homo sapiens, 72 h, read-out: Growth inhibition (%) ± SEM. It is filed as cell-based, human. How it is done: as §1, §2
For series [3], the system named is HeLa cells (cervical cancer). The series is described as follows: MTT antiproliferative assay, HeLa. In kind it is cell-based, human. To be noted: Homo sapiens, 72 h, read-out: Growth inhibition (%) ± SEM. On the procedure:
as §1, §2

Series [4] concerns MDA-MB-231 cells (breast cancer). Nature of the series: MTT antiproliferative assay, MDA-MB-231. In kind it is cell-based, human. To be noted: Homo sapiens, 72 h, read-out: Growth inhibition (%) ± SEM; for inhibition at 10 µM: MDA-MB-231, 10 μM; for inhibition at 30 µM: MDA-MB-231, 30 μM. On the procedure: as §1, §2

Usually inhibition stands for the percentage by which the read-out fell short of the control. Broadly, the melting point is the temperature of the solid-liquid transition.

On to `CCOC(=O)[C@H]1c2c(C)cccc2[C@H]2CC[C@]3(O)C[C@@]21C[C@]3(O)CN[C@H](CC)c1ccccc1` [Compound 7, Ethyl (4bS,7S,8S,9aR,10R)-7,8-dihydroxy-1-methyl-8-((((R)-1-phenylpropyl)amino)methyl)-4b,6,7,8,9,10-hexahydro-5H-7,9a-methanobenzo[a]azulene-10-carboxylate], for which the melting point is 55 to 57 °C. Also, in series [1], the inhibition at 10 µM is below 20% and the inhibition at 30 µM stood at 65 ± 2.44%. Moreover, in series [2], the inhibition at 10 µM stood at 28.9 ± 1.16% and the inhibition at 30 µM amounted to 94.3 ± 1.48%. In series [3], the inhibition at 10 µM is below 20% and the inhibition at 30 µM came to 45 ± 0.97%. In series [4], the inhibition at 10 µM was below 20% and the inhibition at 30 µM amounted to 70.38 ± 0.07%.
Compound `CCOC(=O)[C@H]1c2c(C)cccc2[C@H]2CC[C@]3(O)C[C@@]21C[C@]3(O)Cn1cnc2ccccc21` [Compound 27, Ethyl (4bS,7S,8S,9aR,10R)-8-((1H-benzo[d]imidazol-1-yl)methyl)-7,8-dihydroxy-1-methyl-4b,6,7,8,9,10-hexahydro-5H-7,9a-methanobenzo[a]azulene-10-carboxylate] displayed a melting point of 221 to 222 °C. Moreover, in series [1], the inhibition at 10 µM was below 20% and the inhibition at 30 µM amounted to 28.9 ± 1.27%. In series [2], the inhibition at 10 µM turned out to be 26.2 ± 0.46% and the inhibition at 30 µM was found to be 44.4 ± 1.84%. Moreover, in series [3], the inhibition at 10 µM is below 20% and the inhibition at 30 µM was 45.5 ± 1.87%. In series [4], the inhibition at 10 µM was below 20% and the inhibition at 30 µM is below 20%.
Regarding `CCOC(=O)[C@H]1c2c(C)cccc2[C@H]2CC[C@]3(O)C[C@@]21C[C@]3(O)CNCc1cn(Cc2ccccc2)nn1` [Compound 31, Ethyl (4bS,7S,8S,9aR,10R)-8-((((1-benzyl-1H-1,2,3-triazol-4-yl)methyl)amino)methyl)-7,8-dihydroxy-1-methyl-4b,6,7,8,9,10-hexahydro-5H-7,9a-methanobenzo[a]azulene-10-carboxylate], the melting point was in the range of 122 to 123 °C. In addition, in series [1], the inhibition at 10 µM is below 20% and the inhibition at 30 µM came out at 41.4 ± 1.13%. Besides, in series [2], the inhibition at 10 µM was below 20% and the inhibition at 30 µM worked out at 42.9 ± 0.84%. In series [3], the inhibition at 10 µM was below 20% and the inhibition at 30 µM was determined as 40.2 ± 5.59%. For the same compound, in series [4], the inhibition at 10 µM is below 20% and the inhibition at 30 µM is 50.8 ± 3.01%.
Regarding `CCOC(=O)[C@H]1c2c(C)cccc2[C@H]2CC[C@]3(O)C[C@@]21C[C@]3(O)CNCc1ccc(F)cc1` [Compound 9, Ethyl (4bS,7S,8S,9aR,10R)-8-(((4-fluorobenzyl)amino)methyl)-7,8-dihydroxy-1-methyl-4b,6,7,8,9,10-hexahydro-5H-7,9a-methanobenzo[a]azulene-10-carboxylate], the melting point fell in the range of 253 to 254 °C. Further, in series [1], the inhibition at 10 µM is below 20% and the inhibition at 30 µM came to 45.8 ± 1.62%. In series [2], the inhibition at 10 µM came to 26.6 ± 1.02% and the inhibition at 30 µM turned out to be 53.6 ± 1.92%. Moreover, in series [3], the inhibition at 10 µM was below 20% and the inhibition at 30 µM is 30.6 ± 4.19%. Further, in series [4], the inhibition at 10 µM is below 20% and the inhibition at 30 µM was below 20%.
For `CCOC(=O)[C@H]1c2c(C)cccc2[C@H]2CC[C@]3(O)C[C@@]21C[C@]3(O)CN[C@H](C)c1ccccc1` [Compound 6, Ethyl (4bS,7S,8S,9aR,10R)-7,8-dihydroxy-1-methyl-8-((((R)-1-phenylethyl)amino)methyl)-4b,6,7,8,9,10-hexahydro-5H-7,9a-methanobenzo[a]azulene-10-carboxylate], the melting point fell in the range of 104 to 105 °C. In series [1], the inhibition at 10 µM is 25.3 ± 0.27% and the inhibition at 30 µM came out at 61.9 ± 1.25%. Further, in series [2], the inhibition at 10 µM was below 20% and the inhibition at 30 µM was 65.9 ± 2.48%. In series [3], the inhibition at 10 µM is 21.4 ± 1.7% and the inhibition at 30 µM stood at 63.1 ± 1.81%. Further, in series [4], the inhibition at 10 µM is below 20% and the inhibition at 30 µM came out at 85.1 ± 1.38%.
